# Laboratory results reported in ChEMBL document CHEMBL4842375, “Discovery of a Potent Glutathione Peroxidase 4 Inhibitor as a Selective Ferroptosis Inducer” (J Med Chem, 2021).
# Active and inactive are the calls of the source. The rule behind the calls is not given here.
# Tests used:
# 4T1 [1] = experiment: Induction of LPO accumulation in mouse 4T1 cells at 2.5 uM incubated for 6 hrs by C11-BODIPY staining based flow cytometric analysis; assay type: functional, cell-based
# 4T1 [2] = experiment: Induction of intracellular ROS generation in mouse 4T1 cells at 2.5 uM incubated for 6 hrs in presence of Fer-1 by DCFH-DA staining based flow cytometric analysis; assay type: functional, cell-based
# 4T1 [3] = experiment: Cytotoxicity against mouse 4T1 cells assessed as reduction in cell viability incubated for 48 hrs by MTT assay; assay type: functional, cell-based; settings: 4T1, 48 h
# 4T1 [4] = experiment: Induction of intracellular ROS generation in mouse 4T1 cells at 2.5 uM incubated for 6 hrs in presence of Fer-1 by DCFH-DA staining based confocal laser scanning microscopic analysis; assay type: functional, cell-based
# 4T1 [5] = experiment: Induction of ferroptosis in mouse 4T1 cells assessed as increase in mitochondrial membrane density at 5 uM incubated for 6 hrs by TEM analysis; assay type: functional, cell-based
# 4T1 [6] = experiment: Induction of ferroptosis in mouse 4T1 cells assessed as reduction in mitochondrial cristae at 5 uM incubated for 6 hrs by TEM analysis; assay type: functional, cell-based
# [7] = Toxicity in BALB/C mouse xenografted with mouse 4T1 cells assessed as change in morphology of tissues and cells at 15 to 30 mg/kg, iv administered every two days for total 5 times and monitered every two days; assay type: organism-based; settings: in vivo, dose 15-30 mg/kg
# 4T1 [8] = experiment: Induction of intracellular ROS generation in mouse 4T1 cells at 2.5 uM incubated for 6 hrs by DCFH-DA staining based confocal laser scanning microscopic analysis; assay type: functional, cell-based
# 4T1 [9] = experiment: Antitumor activity against mouse 4T1 cells xenografted in BALB/c mouse assessed as tumor growth inhibition at 30 mg/kg, iv administered every two days for total 5 times and monitered every two days by electronic caliper method; assay type: functional; settings: 4T1, iv, 48 h, read-out: TGI
# 4T1 [10] = experiment: Induction of LPO accumulation in mouse 4T1 cells at 2.5 uM incubated for 6 hrs in presence of Fer-1 by C11-BODIPY staining based confocal laser scanning microscopic analysis; assay type: functional, cell-based
# 4T1 [11] = experiment: Induction of ferroptosis in mouse 4T1 cells assessed as reversal of cytotoxicity after 48 hrs in presence of NAC by MTT assay; assay type: functional, cell-based
# 4T1 [12] = experiment: Antitumor activity against mouse 4T1 cells xenografted in iv dosed BALB/c mouse assessed as tumor growth inhibition administered every two days for total 5 times and monitered every two days by electronic caliper method; assay type: functional, organism-based; settings: dose 15-30 mg/kg
# 4T1 [13] = experiment: Induction of intracellular ROS generation in mouse 4T1 cells at 2.5 uM incubated for 6 hrs by DCFH-DA staining based flow cytometric analysis; assay type: functional, cell-based
# [14] = Selectivity index, ratio of IC50 for cytotoxicity against human HT-1080 cells in presence of Fer-1 to IC50 for cytotoxicity against human HT-1080 cells; assay type: functional
# 4T1 [15] = experiment: Antitumor activity against mouse 4T1 cells xenografted in BALB/c mouse assessed as tumor growth inhibition at 15 mg/kg, iv administered every two days for total 5 times and monitered every two days by electronic caliper method; assay type: functional; settings: 4T1, iv, 48 h, read-out: TGI
# HT-1080 [16] = experiment: Cytotoxicity against human HT-1080 cells assessed as reduction in cell viability incubated for 48 hrs in presence of Fer-1 by MTT assay; assay type: functional, cell-based; settings: HT-1080, 48 h
# HT-1080 [17] = experiment: Cytotoxicity against human HT-1080 cells assessed as reduction in cell viability incubated for 48 hrs by MTT assay; assay type: functional, cell-based; settings: HT-1080, 48 h
# [18] = Toxicity in BALB/C mouse xenografted with mouse 4T1 cells assessed as change in biochemical indexes at 15 to 30 mg/kg, iv administered every two days for total 5 times and monitered every two days; assay type: organism-based; settings: in vivo, dose 15-30 mg/kg
# 4T1 [19] = experiment: Induction of ferroptosis in mouse 4T1 cells assessed as reduction in GSH levels at 5 uM; assay type: functional, cell-based
# [20] = Stability of compound in glutathione after 12 hrs by HPLC analysis; assay type: physicochemical
# 4T1 [21] = experiment: Induction of ferroptosis in mouse 4T1 cells assessed as ruptured mitochondria at 5 uM incubated for 6 hrs by TEM analysis; assay type: functional
# [22] = target: T1, Phospholipid hydroperoxide glutathione peroxidase GPX4 (Homo sapiens) (UniProt P36969); experiment: Inhibition of GPX4 in mouse 4T1 cells assessed as decrease in intracellular GPX4 activity at 5 uM after 6 hrs; assay type: cell-based
# T1 sequence (whole entry): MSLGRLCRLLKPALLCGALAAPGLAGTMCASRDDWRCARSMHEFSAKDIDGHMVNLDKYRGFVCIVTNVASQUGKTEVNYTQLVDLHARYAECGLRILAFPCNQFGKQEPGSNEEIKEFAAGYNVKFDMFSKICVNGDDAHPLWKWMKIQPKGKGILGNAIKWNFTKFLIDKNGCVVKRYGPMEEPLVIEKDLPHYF
# 4T1 [23] = experiment: Effect on intracellular GSH level in mouse 4T1 cells assessed as reduction in GSH level; assay type: functional, cell-based
# 4T1 [24] = experiment: Induction of LPO accumulation in mouse 4T1 cells at 2.5 uM incubated for 6 hrs by C11-BODIPY staining based confocal laser scanning microscopic analysis; assay type: functional, cell-based
# 4T1 [25] = experiment: Induction of LPO accumulation in mouse 4T1 cells assessed as increase in MDA level at 2.5 uM incubated for 6 hrs; assay type: functional, cell-based
# 4T1 [26] = experiment: Induction of LPO accumulation in mouse 4T1 cells at 2.5 uM incubated for 6 hrs in presence of Fer-1 by C11-BODIPY staining based flow cytometric analysis; assay type: functional, cell-based
# MCF7 = experiment: Cytotoxicity against human MCF7 cells assessed as reduction in cell viability incubated for 48 hrs by MTT assay; assay type: functional, cell-based; settings: MCF7, 48 h
# [27] = Toxicity in BALB/C mouse xenografted with mouse 4T1 cells assessed as change in body weight at 15 to 30 mg/kg, iv administered every two days for total 5 times and monitered every two days; assay type: organism-based; settings: in vivo, dose 15-30 mg/kg
# 4T1 [28] = experiment: Induction of ferroptosis in mouse 4T1 cells assessed as reversal of cytotoxicity after 48 hrs in presence of glutathione by MTT assay; assay type: functional, cell-based
smiles,measurement,setting,value
O=C(NCCc1ccccc1)C(c1csc2ccccc12)N(C(=O)CCl)c1ccc(-c2cnco2)cc1 (centres undefined),Activity,4T1 [1],Active
same,Activity,4T1 [2],inactive
same,IC50,4T1 [3],780 nM
same,Activity,4T1 [4],inactive
same,Activity,4T1 [5],Active
same,Activity,4T1 [6],Active
same,Activity,[7],Non-Toxic
same,Activity,4T1 [8],Active
same,inhibition in vivo at 30 mg/kg,4T1 [9],55.1%
same,Activity,4T1 [10],inactive
same,Activity,4T1 [11],Active
same,Activity,4T1 [12],Dose-Dependent Effect
same,Activity,4T1 [13],Active
same,Ratio IC50,[14],31.5
same,inhibition in vivo at 15 mg/kg,4T1 [15],33.2%
same,IC50,HT-1080 [16],4730 nM
same,IC50,HT-1080 [17],150 nM
same,Activity,[18],Non-Toxic
same,Activity,4T1 [19],Active
same,Stabilty,[20],Stable
same,Activity,4T1 [21],Active
same,inhibition,[22],11.8%
same,Activity,4T1 [23],inactive
same,Activity,4T1 [24],Active
same,Activity,4T1 [25],Active
same,Activity,4T1 [26],inactive
same,IC50,MCF7,6900 nM
same,Activity,[27],Non-Toxic
same,Activity,4T1 [28],Active
